Reference: US11649255B2, “Indazoles as hematopoietic progenitor kinase 1 (HPK1) inhibitors and methods using same” (1st Biotherapeutics, Inc., priority 2020, dated 2023)

Biological target: recombinant human HPK1 (Homo sapiens (Human), UniProt Q92918)
Assay: HPK1 kinase assay (ADP-Glo)
Assay type: biochemical
Conditions: 25 μM ATP, MBP substrate
Summary of the method: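 Activity was read as ADP formed, detected by ADP-Glo luminescence after the reaction of 5 ng recombinant human HPK1 with MBP and ATP (stocks 0.5 μg/μl and 25 μM) for 40 min at 30 °C. Buffer was Tris pH 7.5 with MgCl2, BSA and DTT, with compound in 0.5% DMSO. IC50 came from inhibition curves.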

recombinant human HPK1, sequence (Q92918 whole entry): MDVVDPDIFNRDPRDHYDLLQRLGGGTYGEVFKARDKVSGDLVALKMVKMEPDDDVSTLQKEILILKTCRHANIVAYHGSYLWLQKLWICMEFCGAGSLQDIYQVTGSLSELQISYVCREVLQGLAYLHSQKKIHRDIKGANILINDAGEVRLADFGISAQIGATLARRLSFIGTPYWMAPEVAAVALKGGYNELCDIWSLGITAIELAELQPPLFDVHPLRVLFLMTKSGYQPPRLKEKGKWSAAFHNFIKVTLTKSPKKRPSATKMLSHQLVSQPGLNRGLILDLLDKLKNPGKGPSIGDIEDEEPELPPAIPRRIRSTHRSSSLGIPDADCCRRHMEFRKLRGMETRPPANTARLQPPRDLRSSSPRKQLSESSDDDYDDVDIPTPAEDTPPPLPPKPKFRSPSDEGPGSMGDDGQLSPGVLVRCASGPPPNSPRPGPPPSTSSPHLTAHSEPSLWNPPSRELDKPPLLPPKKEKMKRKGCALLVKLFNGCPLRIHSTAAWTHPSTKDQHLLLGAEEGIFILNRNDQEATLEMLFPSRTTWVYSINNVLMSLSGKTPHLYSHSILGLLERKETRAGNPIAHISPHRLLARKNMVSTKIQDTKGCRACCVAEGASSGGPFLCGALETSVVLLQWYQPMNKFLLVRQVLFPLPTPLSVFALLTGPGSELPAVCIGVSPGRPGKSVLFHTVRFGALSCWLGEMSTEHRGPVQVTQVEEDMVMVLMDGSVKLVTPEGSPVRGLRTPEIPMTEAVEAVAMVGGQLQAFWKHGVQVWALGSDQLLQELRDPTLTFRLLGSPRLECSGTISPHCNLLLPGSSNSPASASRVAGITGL

SMILES	IC50 [nM]
CN(C)c1c(F)c(Cl)c(-c2ccn3nc(NC(=O)NC4CC4)cc3c2)c2cn[nH]c12 [Example 647, 1-(5-(5-chloro-7-(dimethylamino)-6-fluoro-1H-indazol-4-yl)pyrazolo[1,5-a]pyridin-2-yl)-3-cyclopropylurea]	< 100
N#Cc1ccc2[nH]ncc2c1-c1ccc2nc(NC(=O)C3CC3)cn2c1 [Example 232, N-(6-(5-cyano-1H-indazol-4-yl)imidazo[1,2-a]pyridin-2-yl)cyclopropanecarboxamide]	< 100
CSc1c(F)cc(-c2ccc3nc(NC(=O)[C@@H]4C[C@@H]4F)sc3c2)c2cn[nH]c12 [Example 141, (1S,2S)-2-fluoro-N-(6-(6-fluoro-7-(methylthio)-1H-indazol-4-yl)benzo[d]thiazol-2-yl)cyclopropane-1-carboxamide]	> 1000
C[C@@H](c1c(F)c(Cl)c(-c2ccc3nc(NC(=O)[C@@H]4C[C@@H]4F)cn3c2)c2cn[nH]c12)n1cnnn1 [Example 414, (1S,2S)-N-(6-(7-((S)-1-(1H-tetrazol-1-yl)ethyl)-5-chloro-6-fluoro-1H-indazol-4-yl)imidazo[1,2-a]pyridin-2-yl)-2-fluorocyclopropane-1-carboxamide]	< 100
CN(C)c1c(F)cc(-c2ccc3nc(NC(=O)[C@@H]4C[C@@H]4F)cn3c2)c2cn[nH]c12 [Example 335, (1S,2S)-N-(6-(7-(dimethylamino)-6-fluoro-1H-indazol-4-yl)imidazo[1,2-a]pyridin-2-yl)-2-fluorocyclopropane-1-carboxamide]	< 100
Cc1c(F)c([S+](C)[O-])c2[nH]ncc2c1-c1ccc2nc(NC(=O)[C@@H]3C[C@@H]3F)sc2c1 (stereo partly drawn) [Example 66, (1S,2S)-2-fluoro-N-(6-(6-fluoro-5-methyl-7-(methylsulfinyl)-1H-indazol-4-yl)benzo[d]thiazol-2-yl)cyclopropane-1-carboxamide]	< 100
O=C(Nc1cn2cc(-c3c(Cl)c(F)c(CF)c4[nH]ncc34)ccc2n1)[C@@H]1C[C@@H]1F [Example 363, (1S,2S)-N-(6-(5-chloro-6-fluoro-7-(fluoromethyl)-1H-indazol-4-yl)imidazo[1,2-a]pyridin-2-yl)-2-fluorocyclopropane-1-carboxamide]	< 100
CN(C)C(=O)c1ccn(-c2c(F)c(Cl)c(-c3ccc4nc(NC(=O)[C@@H]5C[C@@H]5F)cn4c3)c3cn[nH]c23)c1 [Example 400, 1-(5-chloro-6-fluoro-4-(2-((1S,2S)-2-fluorocyclopropane-1-carboxamido)imidazo[1,2-a]pyridin-6-yl)-1H-indazol-7-yl)-N,N-dimethyl-1H-pyrrole-3-carboxamide]	< 100
CN(C)c1ccc(-c2ccn3nc(NC(=O)[C@@H]4C[C@@H]4F)cc3c2)c2cn[nH]c12 [Example 595, (1S,2S)-N-(5-(7-(dimethylamino)-1H-indazol-4-yl)pyrazolo[1,5-a]pyridin-2-yl)-2-fluorocyclopropane-1-carboxamide]	101 to 500
O=C(Nc1nc2ccc(-c3c(Cl)c(F)c(NCC4CNC4)c4[nH]ncc34)cc2s1)[C@@H]1C[C@@H]1F [Example 95, (1S,2S)-N-(6-(7-((azetidin-3-ylmethyl)amino)-5-chloro-6-fluoro-1H-indazol-4-yl)benzo[d]thiazol-2-yl)-2-fluorocyclopropanecarboxamide]	< 100
O=C(Nc1nc2ccc(-c3c(I)c(F)cc4[nH]ncc34)cc2s1)[C@@H]1C[C@@H]1F [Example 48, (1S,2S)-2-fluoro-N-(6-(6-fluoro-5-iodo-1H-indazol-4-yl)benzo[d]thiazol-2-yl)cyclopropane-1-carboxamide]	< 100
Nc1c(F)cc2[nH]ncc2c1-c1ccc2nc(NC(=O)C3CC3)cn2c1 [Example 227, N-(6-(5-amino-6-fluoro-1H-indazol-4-yl)imidazo[1,2-a]pyridin-2-yl)cyclopropanecarboxamide]	> 1000
O=C(Nc1cc2cc(-c3c(Cl)c(F)c(O)c4[nH]ncc34)ccn2n1)[C@@H]1C[C@@H]1F [Example 528, (1S,2S)-N-(5-(5-chloro-6-fluoro-7-hydroxy-1H-indazol-4-yl)pyrazolo[1,5-a]pyridin-2-yl)-2-fluorocyclopropane-1-carboxamide]	< 100
O=C(Nc1cn2cc(-c3c(Cl)ccc4[nH]ncc34)ccc2n1)C1CC1 [Example 223, N-(6-(5-chloro-1H-indazol-4-yl)imidazo[1,2-a]pyridin-2-yl)cyclopropanecarboxamide]	< 100
COc1ccc2[nH]ncc2c1-c1ccc2nc(NC(=O)C3CC3)sc2c1 [Example 24, N-(6-(5-methoxy-1H-indazol-4-yl)benzo[d]thiazol-2-yl)cyclopropanecarboxamide]	101 to 500
CN(C)CCOc1ccc2[nH]ncc2c1-c1ccc2nc(NC(=O)[C@@H]3C[C@@H]3F)sc2c1 [Example 31, (1S,2S)-N-(6-(5-(2-(dimethylamino)ethoxy)-1H-indazol-4-yl)benzo[d]thiazol-2-yl)-2-fluorocyclopropane-1-carboxamide]	> 1000

SMILES	IC50 [nM]
CNC(=O)c1c(F)c(Cl)c(-c2ccn3nc(NC(=O)[C@@H]4C[C@@H]4F)cc3c2)c2cn[nH]c12 [Example 560, 5-chloro-6-fluoro-4-(2-((1S,2S)-2-fluorocyclopropane-1-carboxamido)pyrazolo[1,5-a]pyridin-5-yl)-N-methyl-1H-indazole-7-carboxamide]	< 100
CCOc1c(F)c(CC)c(-c2ccc3nc(NC(=O)[C@@H]4C[C@@H]4F)cn3c2)c2cn[nH]c12 [Example 318, (1S,2S)-N-(6-(7-ethoxy-5-ethyl-6-fluoro-1H-indazol-4-yl)imidazo[1,2-a]pyridin-2-yl)-2-fluorocyclopropane-1-carboxamide]	< 100
CN(c1ncccn1)c1c(F)c(Cl)c(-c2ccc3nc(NC(=O)[C@@H]4C[C@@H]4F)cn3c2)c2cn[nH]c12 [Example 346, (1S,2S)-N-(6-(5-chloro-6-fluoro-7-(methyl(pyrimidin-2-yl)amino)-1H-indazol-4-yl)imidazo[1,2-a]pyridin-2-yl)-2-fluorocyclopropane-1-carboxamide]	< 100
CC(=O)NC(C)c1c(F)c(Cl)c(-c2ccc3nc(NC(=O)[C@@H]4C[C@@H]4F)cn3c2)c2cn[nH]c12 (stereo partly drawn) [Example 417, (1S,2S)-N-(6-(7-(1-acetamidoethyl)-5-chloro-6-fluoro-1H-indazol-4-yl)imidazo[1,2-a]pyridin-2-yl)-2-fluorocyclopropane-1-carboxamide]	< 100
Cc1c(F)c(OC(F)(F)F)c2[nH]ncc2c1-c1ccc2nc(NC(=O)[C@@H]3C[C@@H]3F)sc2n1 [Example 213, (1S,2S)-2-fluoro-N-(5-(6-fluoro-5-methyl-7-(trifluoromethoxy)-1H-indazol-4-yl)thiazolo[5,4-b]pyridin-2-yl)cyclopropane-1-carboxamide]	> 1000
CCOc1c(F)c(Cl)c(-c2ccc3nc(NC(=O)[C@@H]4C[C@@H]4F)sc3c2)c2cn[nH]c12 [Example 81, (1S,2S)-N-(6-(5-chloro-7-ethoxy-6-fluoro-1H-indazol-4-yl)benzo[d]thiazol-2-yl)-2-fluorocyclopropane-1-carboxamide]	< 100
O=C(Nc1cn2cc(-c3c(Cl)c(F)c(CN4CCCCC4)c4[nH]ncc34)ccc2n1)[C@@H]1C[C@@H]1F [Example 382, (1S,2S)-N-(6-(5-chloro-6-fluoro-7-(piperidin-1-ylmethyl)-1H-indazol-4-yl)imidazo[1,2-a]pyridin-2-yl)-2-fluorocyclopropane-1-carboxamide]	101 to 500
N#Cc1ccc2[nH]ncc2c1-c1ccc2nc(NC(=O)C3CC3)sc2c1 [Example 29, N-(6-(5-cyano-1H-indazol-4-yl)benzo[d]thiazol-2-yl)cyclopropanecarboxamide]	101 to 500
CN(CCN)c1c(F)c(Cl)c(-c2ccc3nc(NC(=O)[C@@H]4C[C@@H]4F)sc3c2)c2cn[nH]c12 [Example 82, (1S,2S)-N-(6-(7-((2-aminoethyl)(methyl)amino)-5-chloro-6-fluoro-1H-indazol-4-yl)benzo[d]thiazol-2-yl)-2-fluorocyclopropane-1-carboxamide]	< 100
O=C(Nc1cn2cc(-c3c(CO)c(F)cc4[nH]ncc34)ccc2n1)C1CC1 [Example 251, N-(6-(6-fluoro-5-(hydroxymethyl)-1H-indazol-4-yl)imidazo[1,2-a]pyridin-2-yl)cyclopropanecarboxamide]	> 1000
CC(C)Oc1c(F)c(Cl)c(-c2ccn3nc(NC(=O)[C@@H]4C[C@@H]4F)cc3c2)c2cn[nH]c12 [Example 650, (1S,2S)-N-(5-(5-chloro-6-fluoro-7-isopropoxy-1H-indazol-4-yl)pyrazolo[1,5-a]pyridin-2-yl)-2-fluorocyclopropane-1-carboxamide]	< 100
O=C(Nc1cc2cc(-c3c(C4CC4)c(F)cc4[nH]ncc34)ccn2n1)[C@@H]1C[C@@H]1F [Example 457, (1S,2S)-N-(5-(5-cyclopropyl-6-fluoro-1H-indazol-4-yl)pyrazolo[1,5-a]pyridin-2-yl)-2-fluorocyclopropane-1-carboxamide]	< 100
CC(Nc1c(F)c(Cl)c(-c2ccn3nc(NC(=O)[C@@H]4C[C@@H]4F)cc3c2)c2cn[nH]c12)C(F)F (stereo partly drawn) [Example 657, (1S,2S)-N-(5-(5-chloro-7-((1,1-difluoropropan-2-yl)amino)-6-fluoro-1H-indazol-4-yl)pyrazolo[1,5-a]pyridin-2-yl)-2-fluorocyclopropane-1-carboxamide]	< 100
O=C(CCO)Nc1c(F)c(Cl)c(-c2ccc3nc(NC(=O)[C@@H]4C[C@@H]4F)cn3c2)c2cn[nH]c12 [Example 369, (1S,2S)-N-(6-(5-chloro-6-fluoro-7-(3-hydroxypropanamido)-1H-indazol-4-yl)imidazo[1,2-a]pyridin-2-yl)-2-fluorocyclopropane-1-carboxamide]	< 100
Cc1ccc2[nH]ncc2c1-c1ccc2nc(NC(=O)OC(C)(C)C)sc2c1 [Example 3, tert-butyl (6-(5-methyl-1H-indazol-4-yl)benzo[d]thiazol-2-yl)carbamate]	> 1000
